From ChEMBL document CHEMBL1201862, “PubChem BioAssay data set” (2004) come the findings set out here.

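Values below derive from 48-hour exposures of cells grown in 96-well plates, with endpoints linearly interpolated between the two concentrations bracketing the appropriate inhibition level. GI50 = concentration required for 50% inhibition of growth.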 Active and inactive are the calls of the source. Rule as the data show it: active = GI50 up to about 1.1 µM and inactive = higher.

Test systems include HT-29; 786-0; COLO 205; DU-145; OVCAR-4; A498; NCI-H460; HCT-116; SR; HOP-92; RPMI-8226; K562; NCI-H23; SK-MEL-2; OVCAR-3; SK-MEL-28; MDA-N; UACC-257; SK-MEL-5.
What all share (test): DTP human tumour cell line panel, 48 h

For `COc1ccc2c(=O)cc(-c3ccncc3)oc2c1OC`, the GI50 in the assay on HT-29 was 28.6 µM (inactive); with 786-0 it was 27.9 µM (inactive); in the assay with COLO 205, 15 µM (inactive); in the assay on DU-145 it was 24.7 µM (inactive); with OVCAR-4 it was 46.1 µM (inactive); in the assay with A498, 14.7 µM (inactive). Besides, the GI50 was 20.7 µM (inactive) in the assay with NCI-H460; 24.2 µM (inactive) with HCT-116; 6.67 µM (inactive) in the assay on SR; 17.7 µM (inactive) with HOP-92; 32.2 µM (inactive) in the assay on RPMI-8226; 38.3 µM (inactive) in the assay on K562. The GI50 in the assay with NCI-H23 was 24.6 µM (inactive); in the assay with SK-MEL-2, 25.3 µM (inactive); with OVCAR-3 it was 17.5 µM (inactive); with SK-MEL-28, 26.5 µM (inactive); in the assay on MDA-N it was 29.2 µM (inactive); with UACC-257 it was 33 µM (inactive). The GI50 in the assay on SK-MEL-5 was 17.5 µM (inactive).
In the case of `CCN(CC)CCCNc1[nH]c2ccccc2c2nc3ccc(OC)cc3c1-2`, the GI50 with HT-29 was 0.521 µM (active); with 786-0, 1.16 µM (inactive); in the assay on COLO 205, 1.32 µM (inactive); in the assay with DU-145, 2.64 µM (inactive); in the assay with OVCAR-4, 1.21 µM (inactive); in the assay on A498 it was 2.12 µM (inactive). Moreover, the GI50 in the assay on NCI-H460 was 0.367 µM (active); with HCT-116 it was 0.618 µM (active); in the assay with SR it was 0.274 µM (active); with HOP-92 it was 2.13 µM (inactive); in the assay on RPMI-8226, 0.43 µM (active); in the assay with K562, 1.27 µM (inactive). Besides, the GI50 in the assay with NCI-H23 was 1.57 µM (inactive); with SK-MEL-2 it was 1.73 µM (inactive); in the assay with OVCAR-3 it was 3.31 µM (inactive); in the assay with SK-MEL-28 it was 1.69 µM (inactive); with MDA-N it was 1.56 µM (inactive); with UACC-257 it was 1.79 µM (inactive). The GI50 in the assay with SK-MEL-5 is 1.73 µM (inactive).
`CCOc1cc(NC(C)=O)ccc1C(=O)NN1C(=O)C(Cl)C1c1ccc(O)c(OC)c1` (configuration not stated): the GI50 in the assay with HT-29 was 16.3 µM (inactive); with 786-0, 13.1 µM (inactive); in the assay on COLO 205 it was 15.6 µM (inactive); in the assay with DU-145, 15.6 µM (inactive); with OVCAR-4 it was 12.8 µM (inactive); with A498, 14.6 µM (inactive). Further, the GI50 with NCI-H460 is 16.4 µM (inactive); in the assay on HCT-116, 18.2 µM (inactive); in the assay on SR it was 4.52 µM (inactive); in the assay with HOP-92 it was 16.4 µM (inactive); in the assay with RPMI-8226, 17.3 µM (inactive); in the assay on K562, 5.11 µM (inactive). Besides, the GI50 was 11.7 µM (inactive) with NCI-H23; 14.8 µM (inactive) in the assay with SK-MEL-2; 20.2 µM (inactive) in the assay on OVCAR-3; 16.9 µM (inactive) with SK-MEL-28; 14.2 µM (inactive) in the assay on MDA-N; 11.8 µM (inactive) in the assay with UACC-257. Further, the GI50 with SK-MEL-5 was 10.4 µM (inactive).
For the compound `Cc1cc2[n-][n+]3ncc(-c4ccccc4)n3c2cc1[N+](=O)[O-]`, the GI50 with 786-0, with COLO 205, in the assay on DU-145, in the assay with OVCAR-4, in the assay on A498 and in the assay on NCI-H460 was > 100 µM (inactive) each time. The GI50 with HCT-116, in the assay with SR, in the assay on HOP-92, in the assay with RPMI-8226, in the assay with K562 and with SK-MEL-2 was > 100 µM (inactive) throughout. The GI50 is > 100 µM (inactive) in the assay with OVCAR-3; > 100 µM (inactive) in the assay on SK-MEL-28; > 10 µM (inactive) with MDA-N; > 100 µM (inactive) in the assay on UACC-257; > 100 µM (inactive) in the assay with SK-MEL-5.
Regarding `COc1ccc(OC)c(NS(=O)(=O)c2ccc3nc(C)n(NS(=O)(=O)c4cc(OC)ccc4OC)c(=O)c3c2)c1`, the GI50 is 74.8 µM (inactive) in the assay with HT-29; > 100 µM (inactive) in the assay on 786-0; > 100 µM (inactive) with COLO 205; > 100 µM (inactive) with DU-145; 93.3 µM (inactive) in the assay with OVCAR-4; > 100 µM (inactive) in the assay on A498. The GI50 with NCI-H460 was 82.4 µM (inactive); in the assay with HCT-116, 21.7 µM (inactive); in the assay on SR it was 14.8 µM (inactive); in the assay on HOP-92, > 100 µM (inactive); with RPMI-8226, 20.8 µM (inactive); with K562, 32.6 µM (inactive). The GI50 in the assay on NCI-H23 was 69.5 µM (inactive); with SK-MEL-2, > 100 µM (inactive); in the assay with OVCAR-3 it was > 100 µM (inactive); in the assay with SK-MEL-28, > 100 µM (inactive); in the assay with MDA-N, 41.7 µM (inactive); with UACC-257, > 100 µM (inactive). For the same compound, the GI50 in the assay with SK-MEL-5 is 26.4 µM (inactive).
On to `CC(=O)N1C2=CCCC2(C)c2ccccc21` (configuration not stated), for which the GI50 in the assay on HT-29 is 63.5 µM (inactive); in the assay with 786-0, > 100 µM (inactive); in the assay on COLO 205, 57.9 µM (inactive); with DU-145, > 100 µM (inactive); with OVCAR-4, 77.6 µM (inactive); in the assay with A498, > 100 µM (inactive). Also, the GI50 is 72.8 µM (inactive) with NCI-H460; 37.1 µM (inactive) with HCT-116; > 100 µM (inactive) in the assay with SR; 26.9 µM (inactive) in the assay with HOP-92; 10.7 µM (inactive) in the assay with RPMI-8226; 33.8 µM (inactive) with K562. The GI50 was 86.9 µM (inactive) in the assay with NCI-H23; > 100 µM (inactive) in the assay with SK-MEL-2; 37.5 µM (inactive) in the assay with OVCAR-3; > 100 µM (inactive) with SK-MEL-28; > 100 µM (inactive) in the assay with MDA-N; 68.7 µM (inactive) in the assay with UACC-257. The GI50 with SK-MEL-5 was 41.1 µM (inactive).
Regarding `Cn1nc(-c2ccccc2)nc1[N+](=O)[O-]`, the GI50 in the assay with HT-29, in the assay with 786-0, in the assay on COLO 205, in the assay on DU-145, in the assay on OVCAR-4 and in the assay on A498 was > 10 µM (inactive) throughout. Also, the GI50 in the assay on NCI-H460, in the assay on HCT-116, in the assay on SR, in the assay on HOP-92, in the assay with RPMI-8226 and with K562 was > 10 µM (inactive) throughout. For the same compound, the GI50 in the assay with NCI-H23, with SK-MEL-2, in the assay with OVCAR-3, in the assay on SK-MEL-28, in the assay on MDA-N and in the assay on UACC-257 was > 10 µM (inactive) throughout. The GI50 with SK-MEL-5 is > 10 µM (inactive).
As for `N#Cc1c(-c2ccccc2)c2c([nH]c1=O)-c1cc([N+](=O)[O-])ccc1CCC2`, the GI50 was 34.8 µM (inactive) in the assay on HT-29; 43.2 µM (inactive) in the assay with 786-0; 26.9 µM (inactive) in the assay on COLO 205; 25.5 µM (inactive) with DU-145; 34 µM (inactive) with OVCAR-4; 19 µM (inactive) with A498. Moreover, the GI50 was 30.4 µM (inactive) in the assay on NCI-H460; 30.3 µM (inactive) in the assay with HCT-116; 28.8 µM (inactive) in the assay on SR; 16.4 µM (inactive) in the assay on HOP-92; 32.9 µM (inactive) in the assay with RPMI-8226; 34.1 µM (inactive) with K562. Further, the GI50 was 25.2 µM (inactive) in the assay on NCI-H23; 25.2 µM (inactive) in the assay on SK-MEL-2; 21.2 µM (inactive) with OVCAR-3; 29.8 µM (inactive) with SK-MEL-28; 36.5 µM (inactive) in the assay with MDA-N; 31.1 µM (inactive) with UACC-257. For the same compound, in the assay on SK-MEL-5, the GI50 was 27.9 µM (inactive).
For the compound `CCCN1C(=O)CCC2=C1CCc1c2ccc(Cl)c1Cl`, the GI50 in the assay on HT-29 is 34.8 µM (inactive); with 786-0 it was 31.9 µM (inactive); in the assay on COLO 205, 51.9 µM (inactive); in the assay on DU-145 it was 5.19 µM (inactive); with OVCAR-4, 26.2 µM (inactive); in the assay on A498, 13 µM (inactive). Also, the GI50 with NCI-H460 is 43.6 µM (inactive); with HCT-116, 27.7 µM (inactive); in the assay with SR it was 31.8 µM (inactive); with HOP-92 it was 21.8 µM (inactive); in the assay with RPMI-8226, 28.8 µM (inactive); in the assay with K562, 35 µM (inactive). Besides, the GI50 in the assay on NCI-H23 was 29.4 µM (inactive); with SK-MEL-2, 13.5 µM (inactive); in the assay with OVCAR-3, 23 µM (inactive); in the assay with SK-MEL-28, 92 µM (inactive); in the assay on MDA-N it was 46 µM (inactive); in the assay on UACC-257, 39.9 µM (inactive). In addition, the GI50 in the assay on SK-MEL-5 was 15.4 µM (inactive).
On to `COc1ccc2c(c1)N=C(N)n1c(nc3ccccc31)S2`, for which the GI50 in the assay with HT-29 was 3.96 µM (inactive); in the assay on 786-0 it was 1.95 µM (inactive); in the assay on COLO 205 it was 5.27 µM (inactive); in the assay with DU-145, 74.8 µM (inactive); in the assay on OVCAR-4, 4.66 µM (inactive); in the assay with A498 it was 32.1 µM (inactive). Besides, the GI50 in the assay with NCI-H460 is 8.18 µM (inactive); with HCT-116 it was 3.65 µM (inactive); with SR, 5.52 µM (inactive); in the assay on HOP-92, 11.7 µM (inactive); with RPMI-8226 it was 4.47 µM (inactive); in the assay with K562, 10.9 µM (inactive). The GI50 is 10.4 µM (inactive) with NCI-H23; 7.98 µM (inactive) with SK-MEL-2; 22.2 µM (inactive) with OVCAR-3; 70.1 µM (inactive) in the assay on SK-MEL-28; 3.45 µM (inactive) in the assay on MDA-N; 11.8 µM (inactive) in the assay with UACC-257. In addition, the GI50 in the assay on SK-MEL-5 was 7.29 µM (inactive).
For `COc1cc(OC)c(-c2cc(=O)c3c(OC)c(OC)c(OC)c(OC)c3o2)cc1OC`, the GI50 in the assay on HT-29 is > 100 µM (inactive); with 786-0 it was > 69.3 µM (inactive); with COLO 205 it was > 100 µM (inactive); with DU-145, > 100 µM (inactive); in the assay with OVCAR-4 it was > 90.8 µM (inactive); in the assay with A498 it was > 61.2 µM (inactive). For the same compound, the GI50 was > 100 µM (inactive) with NCI-H460; > 100 µM (inactive) with HCT-116; > 28.3 µM (inactive) in the assay on SR; 11.6 µM (inactive) in the assay with HOP-92; > 20.1 µM (inactive) with RPMI-8226; > 73.1 µM (inactive) in the assay on K562. The GI50 in the assay with NCI-H23 is 33 µM (inactive); with SK-MEL-2, > 100 µM (inactive); in the assay with OVCAR-3 it was 30.2 µM (inactive); in the assay with SK-MEL-28 it was > 100 µM (inactive); in the assay with MDA-N, > 100 µM (inactive); with UACC-257, > 100 µM (inactive). Moreover, the GI50 in the assay on SK-MEL-5 is 46.8 µM (inactive).

One may read the GI50 as the concentration giving 50% growth inhibition.
